Source: US7045544B2, “Substituted 2,5-diamidoindoles as ECE inhibitors for the treatment of cardiovascular diseases” (Bayer HealthCare AG, priority 2001, dated 2006)
Where a name gives a salt, the structure may show the parent alone.

Target: T1, endothelin-converting enzyme (ECE) (Homo sapiens, UniProt P42892)
T1 construct: The ECE activity for identifying the substances described herein originates from the endothelial cell line EA.hy926; endogenous in cells; host or cells: EA.hy926 endothelial cells (intact, confluent)
T1 sequence (P42892 1-770): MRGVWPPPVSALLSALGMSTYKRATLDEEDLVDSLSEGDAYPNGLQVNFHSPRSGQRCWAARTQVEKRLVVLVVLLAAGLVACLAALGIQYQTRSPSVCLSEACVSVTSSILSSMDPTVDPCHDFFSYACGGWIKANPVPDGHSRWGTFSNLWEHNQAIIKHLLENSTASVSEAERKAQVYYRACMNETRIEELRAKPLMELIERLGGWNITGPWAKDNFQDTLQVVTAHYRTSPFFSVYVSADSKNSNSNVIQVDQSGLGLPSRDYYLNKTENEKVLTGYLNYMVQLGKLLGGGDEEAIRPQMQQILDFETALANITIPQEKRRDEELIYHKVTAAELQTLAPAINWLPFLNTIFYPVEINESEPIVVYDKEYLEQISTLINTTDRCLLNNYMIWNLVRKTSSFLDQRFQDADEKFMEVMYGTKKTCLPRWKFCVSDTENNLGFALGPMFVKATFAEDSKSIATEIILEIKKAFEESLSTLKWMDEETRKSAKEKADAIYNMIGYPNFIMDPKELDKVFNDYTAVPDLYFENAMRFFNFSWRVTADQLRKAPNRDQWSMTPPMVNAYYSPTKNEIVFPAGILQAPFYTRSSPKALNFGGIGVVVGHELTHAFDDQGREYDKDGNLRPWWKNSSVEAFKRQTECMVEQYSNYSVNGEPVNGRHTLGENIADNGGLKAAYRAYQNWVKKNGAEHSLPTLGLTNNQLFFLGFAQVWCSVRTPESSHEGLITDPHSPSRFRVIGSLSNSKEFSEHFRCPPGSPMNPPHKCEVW
Experiment: cell-based
Conditions: ECE activity of endothelial cell line EA.hy926; 1–100 nM bET; 100 μM thiophane added; ET-1 formed measured by EIA
Description: Functional in Vitro Assay
The ECE activity for identifying the substances described herein originates from the endothelial cell line EA.hy926. The ECE-inhibitory action of the compounds in this invention is tested as described below:
For 12–48 h, EA.hy296 cells are cultivated in a 384-well cell culture dish in 80 μl of cell culture medium (DMEM supplemented with 10% FCS, 2 mM glutamine, 10 mM HEPES, 1 mM sodium pyruvate and 1×HAT (Gibco 21060-017)) in a humid atmosphere (100% atmospheric humidity) enriched with 7% v/v of CO2 at 37° C. After confluence has been reached, and immediately prior to the actual beginning of measurement, the supernatant of the cell culture is pipetted off and replaced by 40 or 80 μl of the same medium to which 1–100 nM bET has been added. After 30–120 minutes under otherwise identical cell culture conditions, the supernatant is pipetted off. Cellular components are removed by centrifugation in a customary bench-top centrifuge (10 000 rpm; 2 minutes). The resulting clear supernatant is either used directly as described below or shock-frozen in dry ice and then stored at −20° C. Directly removed supernatant or thawed, stored supernatant are measured in an enzyme immunoassay (EIA).
To determine the inhibitory activity of ECE inhibitors, EA.hy296 cells are incubated with the test substance in a concentration between 0.001–5 μM under the conditions described above. To minimize possible interference by neutral endopeptidase (NEP24.11), 100 μM of thiophane are added during the bET incubation of the EA.hy926 cells.
The proportion of the ET-1 formed by ECE cleavage is measured as follows: depending on the amount of converted bET, the samples are, prior to use, diluted 2–100-fold with EIA. An appropriate dilution of the cell supernatant is incubated in 100 μl portions for 14–18 hours in the sample tubes of the EIA kit Biomedica B1-20052.

CC(=O)Nc1ccc(NC(=O)c2cc3cc(NC(=O)CC(C)(C)C)ccc3n2Cc2ccccc2F)cc1 [Example 60]
IC50: 700 nM

CC(C)(C)CC(=O)Nc1ccc2c(c1)cc(C(=O)Nc1ccc(N)cc1)n2Cc1ccccc1F [Example 57, N-(4-Aminophenyl)-5-[(3,3-dimethylbutanoyl)amino]-1-(2-fluorobenzyl)-1H-indole-2-carboxamide hydrochloride]
IC50: 1500 nM

CC(C)(C)CC(=O)Nc1ccc2c(c1)cc(C(=O)Nc1ccc(NS(C)(=O)=O)cc1)n2Cc1ccccc1F [Example 58]
IC50: 1600 nM
